The record followed here is patent publication US20030073695A1, “Methods of use of gemifloxacin compounds against fluoroquinolone resistant Streptococcus pneumoniae bacteria” (priority 2000, published 2003).

In brackets after ≈: the same amount, converted by molar mass.

Assay [1] concerns CFX and TFX susceptible and resistant S. pneumoniae. The assay can be described thus: Postantibiotic effect (PAE), 2 hour exposure, viable colony counting. The settings on record: for mean PAE at 4× MIC: exposure 2 hours at 4× MIC; for mean PAE at 10× MIC: exposure 2 hours at 10× MIC. The format is cell-based, Streptococcus pneumoniae. The protocol: This invention was based, in part, on analyses evaluating the comparative activity of gemifloxacin against various strains of S. pneumoniae.
MICs were determined using a microbroth dilution technique described by the NCCLS. Topisomeriase IV (parC) and DNA gyrase (gyrA) mutations were confirmed by sequencing the QRDR region of each gene. […] Antibiotics were removed using dilution into sterile media and the PAE assessed using a viable colony counting technique.

Assay [2] relates to S. pneumoniae with reduced susceptibility to CIP. The assay can be described thus: MIC by NCCLS microbroth dilution, 80 clinical isolates with CIP MIC ≧2 μg/ml. The format is cell-based. The settings on record: Streptococcus pneumoniae, 80 isolates with CIP MICs ≧2 μg/ml. As to the method: MICs to penicillin (herein “PEN”), CIP, levofloxacin (herein “LEV”), TFX, moxifloxacin (herein “MOX”), grepafloxacin (herein “GRE”), gatifloxacin (herein “GAT”), sparfloxacin (herein “SPA”), and gemifloxacin (herein “GFX”) were determined using a microbroth dilution technique described by the NCCLS. Topoisomerase IV (parC) and DNA gyrase (gyrA) mutations were confirmed by sequencing the QRDR region of each gene. Serotyping and PFGE were performed on all isolates. […] Breakpoints have not been established for all fluoroquines, thus percentage resistance was not calculated.
In general terms: Dilution methods test growth across graded concentrations, often in twofold steps.

The mark [3] stands for this setting: GFX, isolates not restricted to susceptible.
Setting [4] is: isolates susceptible to the tested drug.

What is called MIC50 is an inhibitory concentration at the 50% level, which refers to growth in some studies and to a panel of isolates in others. Read a low MIC50 as greater potency. What is called MIC is the lowest concentration that inhibits growth of the organism. For `CO/N=C1\CN(c2nc3c(cc2F)c(=O)c(C(=O)O)cn3C2CC2)CC1CN` (racemic) [GFX, (R,S)-7-(3-aminomethyl-4-methoxyiminopyrrolidin-1-yl)-1-cyclopropyl-6-fluoro-4-oxo-1,4-dihydro-1,8-naphthyridine-3-carboxylic acid], in assay [1] (setting [3]), the “mean PAE at 4× MIC” value is 2.7 h and the “mean PAE at 10× MIC” value was found to be 3.8 h. In addition, the “difference in duration of PAE between CFX or TFX susceptible and resistant strains” value in assay [1] (p<0.05) is given as “no significant difference”. This molecule also gave an MIC50 in assay [2] (MIC50 of Table 1) of 0.06 µg/mL (≈ 0.154 µM). This molecule also returned an MIC50 in assay [2] (Table 1 MIC50) of 0.25 µg/mL (≈ 0.642 µM). This molecule also had an MIC in assay [2] of 0.03 to 0.5 µg/mL (≈ 0.077 to 1.28 µM).

For the molecule `COc1c(N2CCNC(C)C2)c(F)cc2c(=O)c(C(=O)O)cn(C3CC3)c12` (centres unmarked) [GAT, gatifloxacin], the MIC50 in assay [2] (MIC50 of Table 1) was found to be 0.5 µg/mL (≈ 1.33 µM); in assay [2] (Table 1 MIC50), 4 µg/mL (≈ 10.7 µM). Further, the MIC in assay [2] was 0.25 to 8 µg/mL (≈ 0.666 to 21.3 µM).

In the case of `Cc1c(F)c(N2CCNC(C)C2)cc2c1c(=O)c(C(=O)O)cn2C1CC1` (centres unmarked) [GRE, grepafloxacin], the results for the MIC50 in assay [2] (MIC50 of Table 1) and in assay [2] (Table 1 MIC50) were 0.5 µg/mL (≈ 1.39 µM) and 8 µg/mL (≈ 22.3 µM), respectively. This molecule showed an MIC in assay [2] of 0.12 to 8 µg/mL (≈ 0.334 to 22.3 µM).

As to `C[C@H]1COc2c(N3CCN(C)CC3)c(F)cc3c(=O)c(C(=O)O)cn1c23` [LEV, levofloxacin], the MIC50 in assay [2] (MIC50 of Table 1) was 2 µg/mL (≈ 5.53 µM); in assay [2] (Table 1 MIC50) it was 16 µg/mL (≈ 44.3 µM). The same molecule showed an MIC in assay [2] of 1 to 32 µg/mL (≈ 2.77 to 88.6 µM).

`COc1c(N2C[C@@H]3CCCN[C@@H]3C2)c(F)cc2c(=O)c(C(=O)O)cn(C3CC3)c12` [MOX, moxifloxacin]: the MIC50 worked out at 0.25 µg/mL (≈ 0.623 µM) in assay [2] (MIC50 of Table 1) and 2 µg/mL (≈ 4.98 µM) in assay [2] (Table 1 MIC50). Moreover, the MIC in assay [2] fell in the range of 0.12 to 4 µg/mL (≈ 0.299 to 9.96 µM).

For `C[C@@H]1CN(c2c(F)c(N)c3c(=O)c(C(=O)O)cn(C4CC4)c3c2F)C[C@H](C)N1` [SPA, sparfloxacin], the MIC50 in assay [2] (MIC50 of Table 1) was 0.5 µg/mL (≈ 1.27 µM); in assay [2] (Table 1 MIC50) it was 16 µg/mL (≈ 40.8 µM). The molecule further came in with an MIC in assay [2] of 0.25 to 32 µg/mL (≈ 0.637 to 81.5 µM).

In the case of `N[C@@H]1[C@H]2CN(c3nc4c(cc3F)c(=O)c(C(=O)O)cn4-c3ccc(F)cc3F)C[C@@H]12` [TFX, trovafloxacin], in assay [1] (setting [4]), the “mean PAE at 4× MIC” value was 2.1 h and the “mean PAE at 10× MIC” value amounted to 3.2 h. For the same molecule, the MIC50 in assay [2] (MIC50 of Table 1) was 0.5 µg/mL (≈ 1.2 µM). This molecule gave an MIC50 in assay [2] (Table 1 MIC50) of 4 µg/mL (≈ 9.61 µM). This molecule registered a minimum inhibitory concentration (MIC) in assay [2] of 0.06 to 8 µg/mL (≈ 0.144 to 19.2 µM).
